{
  "source": "the supplement of paper PMC10307832",
  "data": [
    {"compound": "CC1=NN=C(O1)C2=NN=C(C=C2)N3CCC(CC3)OC4=C(C=CC(=C4)F)Cl + CS(=O)(=O)CCNCc1ccc(-c2ccc3ncnc(Nc4ccc(OCc5cccc(F)c5)c(Cl)c4)c3c2)o1 [Lapatinib] (partner 2 µM)", "test": "relative viability (nuclei count vs DMSO), 5 days (fraction); higher = more cells survive", "conditions": "first compound 2.53 µM", "how_it_was_run": "(§1)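 After 5 days of treatment, lung cancer cells in 1536-well plates were fixed and stained in a single step (final 0.05% Triton X-100, 1% formaldehyde, 1 ug/ml Hoechst) and their nuclei counted on 4× images. Treatment had been applied by pin tool the day after seeding as one drug alone or as a fixed anchor-drug dose with five library-drug doses (not always all listed) in √10 steps. Relative viability is the nuclei count of treated wells divided by that of vehicle wells, and values are medians of duplicate plates.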", "values": [
      {"cell line": "LU99A", "relative viability": 0.978},
      {"cell line": "NCI-H2170", "relative viability": 0.291},
      {"cell line": "NCI-H460", "relative viability": 0.283},
      {"cell line": "HOP-62", "relative viability": 0.523},
      {"cell line": "HCC-44", "relative viability": 0.383},
      {"cell line": "A549", "relative viability": 0.4},
      {"cell line": "LXF-289", "relative viability": 0.696},
      {"cell line": "BEN", "relative viability": 0.743},
      {"cell line": "HARA", "relative viability": 0.403},
      {"cell line": "HCC-78", "relative viability": 0.404},
      {"cell line": "NCI-H647", "relative viability": 0.824},
      {"cell line": "LCLC-97TM1", "relative viability": 0.553},
      {"cell line": "NCI-H2126", "relative viability": 0.702},
      {"cell line": "A-427", "relative viability": 0.825},
      {"cell line": "NCI-H650", "relative viability": 0.839},
      {"cell line": "RERF-LC-KJ", "relative viability": 0.584},
      {"cell line": "NCI-H1915", "relative viability": 0.401},
      {"cell line": "NCI-H661", "relative viability": 0.542},
      {"cell line": "NCI-H1975", "relative viability": 0.859},
      {"cell line": "NCI-H1395", "relative viability": 1.02},
      {"cell line": "201T", "relative viability": 0.524},
      {"cell line": "NCI-H2023", "relative viability": 0.409},
      {"cell line": "HCC-827", "relative viability": 0.176}
    ]},
    {"compound": "CC1=NN=C(O1)C2=NN=C(C=C2)N3CCC(CC3)OC4=C(C=CC(=C4)F)Cl + CS(=O)(=O)CCNCc1ccc(-c2ccc3ncnc(Nc4ccc(OCc5cccc(F)c5)c(Cl)c4)c3c2)o1 [Lapatinib] (partner 2 µM)", "test": "relative viability (nuclei count vs DMSO), 5 days (fraction); higher = more cells survive", "conditions": "first compound 8 µM", "how_it_was_run": "as §1", "values": [
      {"cell line": "NCI-H23", "relative viability": 0.876},
      {"cell line": "Calu-6", "relative viability": 0.557},
      {"cell line": "HCC-366", "relative viability": 0.406},
      {"cell line": "NCI-H1755", "relative viability": 0.592},
      {"cell line": "NCI-H838", "relative viability": 0.78},
      {"cell line": "LK-2", "relative viability": 0.818},
      {"cell line": "NCI-H2347", "relative viability": 0.535},
      {"cell line": "SK-MES-1", "relative viability": 0.518},
      {"cell line": "H3255", "relative viability": 0.269},
      {"cell line": "COR-L23", "relative viability": 0.602},
      {"cell line": "COR-L 105", "relative viability": 0.417},
      {"cell line": "IA-LM", "relative viability": 0.275},
      {"cell line": "LU99A", "relative viability": 0.816},
      {"cell line": "NCI-H2170", "relative viability": 0.26},
      {"cell line": "NCI-H460", "relative viability": 0.276},
      {"cell line": "HOP-62", "relative viability": 0.684},
      {"cell line": "HCC-44", "relative viability": 0.43},
      {"cell line": "A549", "relative viability": 0.425},
      {"cell line": "LXF-289", "relative viability": 0.584},
      {"cell line": "BEN", "relative viability": 0.61},
      {"cell line": "HARA", "relative viability": 0.285},
      {"cell line": "HCC-78", "relative viability": 0.325},
      {"cell line": "NCI-H647", "relative viability": 0.58},
      {"cell line": "LCLC-97TM1", "relative viability": 0.687},
      {"cell line": "NCI-H2126", "relative viability": 0.699},
      {"cell line": "A-427", "relative viability": 0.54},
      {"cell line": "NCI-H650", "relative viability": 0.851},
      {"cell line": "RERF-LC-KJ", "relative viability": 0.57},
      {"cell line": "NCI-H1915", "relative viability": 0.322},
      {"cell line": "NCI-H661", "relative viability": 0.417},
      {"cell line": "NCI-H1975", "relative viability": 0.753},
      {"cell line": "NCI-H1395", "relative viability": 0.873},
      {"cell line": "201T", "relative viability": 0.435},
      {"cell line": "NCI-H2023", "relative viability": 0.435},
      {"cell line": "HCC-827", "relative viability": 0.2}
    ]},
    {"compound": "CC(C)C[C@@H](C(=O)N[C@H](C(=O)OC1CCCC1)c1ccccc1)[C@H](O)C(=O)NO [Tosedostat] + CS(=O)(=O)N1CCN(Cc2cc3nc(-c4cccc5[nH]ncc45)nc(N4CCOCC4)c3s2)CC1 [Pictilisib] (partner 1 µM)", "test": "relative viability (nuclei count vs DMSO), 5 days (fraction); higher = more cells survive", "conditions": "first compound 0.02 µM", "how_it_was_run": "as §1", "values": [
      {"cell line": "NCI-H23", "relative viability": 0.523},
      {"cell line": "Calu-6", "relative viability": 0.975},
      {"cell line": "HCC-366", "relative viability": 0.167},
      {"cell line": "NCI-H1755", "relative viability": 0.461},
      {"cell line": "NCI-H838", "relative viability": 0.522},
      {"cell line": "LK-2", "relative viability": 0.613},
      {"cell line": "NCI-H2347", "relative viability": 0.659},
      {"cell line": "SK-MES-1", "relative viability": 0.382},
      {"cell line": "H3255", "relative viability": 0.659},
      {"cell line": "COR-L23", "relative viability": 0.955},
      {"cell line": "COR-L 105", "relative viability": 0.451},
      {"cell line": "IA-LM", "relative viability": 0.447},
      {"cell line": "LU99A", "relative viability": 0.343},
      {"cell line": "NCI-H2170", "relative viability": 0.31},
      {"cell line": "NCI-H460", "relative viability": 0.31},
      {"cell line": "HOP-62", "relative viability": 0.94},
      {"cell line": "HCC-44", "relative viability": 0.666},
      {"cell line": "A549", "relative viability": 0.606},
      {"cell line": "LXF-289", "relative viability": 0.818},
      {"cell line": "BEN", "relative viability": 0.679}
    ]}
  ]
}
